How the values were obtained:
Type in all cases: cell-based
FOXC2 = molecular target: T1, FOXC2 (Homo sapiens, UniProt Q99958); test: Western blot of FOXC2 protein level and nuclear localization in MDA-MB-231; details: MDA-MB-231, 20 μM
T1 construct: endogenous in cells; host or cells: MDA-MB-231
T1 sequence (Q99958 1-501): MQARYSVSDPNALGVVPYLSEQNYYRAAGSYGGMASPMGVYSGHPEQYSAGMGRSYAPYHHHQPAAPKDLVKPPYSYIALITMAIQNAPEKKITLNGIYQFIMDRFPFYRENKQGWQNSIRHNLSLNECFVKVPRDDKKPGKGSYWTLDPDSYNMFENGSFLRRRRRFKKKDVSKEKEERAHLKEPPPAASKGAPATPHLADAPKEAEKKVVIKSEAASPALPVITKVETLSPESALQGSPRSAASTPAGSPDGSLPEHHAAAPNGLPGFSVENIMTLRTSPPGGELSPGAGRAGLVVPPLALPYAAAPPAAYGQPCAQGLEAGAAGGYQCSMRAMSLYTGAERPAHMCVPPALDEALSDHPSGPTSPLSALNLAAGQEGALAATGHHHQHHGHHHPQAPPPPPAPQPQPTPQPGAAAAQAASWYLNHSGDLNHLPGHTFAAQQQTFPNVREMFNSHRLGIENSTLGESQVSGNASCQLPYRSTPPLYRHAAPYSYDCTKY
Source text: As a transcription factor, FOXC2 needs to localize into the nucleus to promote the transcription of target genes. Therefore, a small molecule that blocks nuclear localization of FOXC2 is expected to inhibit EMT. […] Putative kinases that phosphorylate FOXC2 have been proposed (Werden et al., 2016; Ivanov et al., 2013; Golden & Cantley, 2014). It is possible that MC-1-F2 disrupts the protein-protein interaction between FOXC2 and its kinase, resulting in the decease of FOXC2 nuclear localization. Investigation into the exact mechanism by which MC-1-F2 inhibits FOXC2 phosphorylation and nuclear localization is underway.
(§1) 50 μg of total protein per sample was incubated with 4× loading buffer at 100° C. for 5 min. Protein samples were then loaded into a polyacrylamide gel and subjected to SDS-PAGE. Resolved proteins were then transferred by a wet transfer method to a PVDF membrane at 100 V for 1 hour using a BioRad Mini Trans-Blot Electrophoresis Transfer Cell. Upon the completion of wet transfer, the membrane was then blocked with 5% (w/v) fat-free milk in 1× Tris-buffered saline/0.1% (v/v) Tween-20 (TBS-T) for at least 1 hour. Then incubated with the respective primary antibodies diluted in 5% BSA in 1×TBST at 4° C. overnight. The following day exposed to 1:1000 dilution of anti-mouse or anti-rabbit HRP-conjugated secondary antibodies in 5% (w/v) fat-free milk in 1×TBS-T for 1 hour at room temperature. The probed proteins were then detected for chemiluminescent signal using SuperSignal Chemiluminescent Substrate (PIERCE). Pierce antibodies: B-actin, and all other antibodies used are from cell signaling. MG132 treatment was added to cells (0.5 μM) for 1-hour incubation prior to compound treatment, no more than 24 hours total exceeded during MG132 incubation.

MDA-MB-231 cells = test: Western blot of FOXC2 target/non-target genes, EMT, CSC and apoptosis markers in MDA-MB-231; details: MDA-MB-231, 20 μM
Protocol: MC-1-F2's effect on FOXC2-mediated transcription was examined by measuring PDGFR-β expression levels, a downstream effector of FOXC2 (Hollier et al., 2013). […] (FIGS. 16A&B). To validate the specificity of the ligand to FOXC2, Western blot analysis was carried out on the non-target genes of FOXC2, p38 and GSK3P3.
Next, it was examined if FOXC2 inhibition by MC-1-F2 can affect EMT progression. […] It has been shown that inhibition of downstream or upstream targets of other EMT-associated transcription factors such as Snail, Slug and Twist leads to the decreased EMT progression, through the re-expression of E-cadherin (Bachelder et al., 2005; Ren et al., 2013). However, the impact of direct inhibition of EMT-associated transcription factors including FOXC2 on EMT progression has never been explored until now due to the lack of small molecule inhibitors directly targeting these transcription factors.
As EMT is known to bestow on cells CSC-like properties (Hollier et al., 2013), MC-1-F2 should be able to repress CSC characteristics in cells undergoing EMT. In order to examine the effects of MC-1-F2 on CSC properties, a Western blot analysis of MDA-MB-231 cell with and without treatment of MC-1-F2 was carried out, analyzing the CSC markers c-Myc, KLF4, and Nanog. […] In order to further evaluate the effect of MC-1-F2 on CSC properties and EMT progression, β-catenin nuclear localization was examined (FIG. 5D). β-catenin is involved in both EMT progression and acquisition of CSC properties (Kalluri & Weinberg, 2009, Schmalhofer et al., 2009). A repression of E-cadherin has shown to initiate a nuclear localization of β-catenin, leading to an initiation of several EMT signals (Schmalhofer et al., 2009). Moreover, nuclear localization β-catenin is the hallmark of an active Wnt pathway, a major pathway that contributes to CSC properties (Beck & Blanpain, 2013). […] Only nuclear fraction of β-catenin bestows CSC properties on cells.
as §1

DU145 cells = test: MTT cell viability assay, DU145; details: Homo sapiens, DU-145, 24 hour treatment
Protocol: In order to determine the EC50 of MC-1-F2, an MTT assay on cell viability was performed in both DU145 and PC3.
Cell viability was assessed by MTT (3-(4,5-Dimethylthiazol-2-yl)-2,5-Diphenyltetrazolium Bromide) assay 5,000 cells were seeded on a 96-well cell culture plate and were incubated for at least 24 hours prior to drug treatment. The MTT reagent (Fisher Scientific) was added to the culture medium 3 hours prior to the end of compound incubation. The reaction took place in the 37° C. incubator with 5% CO2 for 3 hours. Cell culture medium was then removed from the wells. Cells with the insoluble purple formazan were lysed with DMSO for 10 mins at room temperature, 200 μL per well. Absorbance was read at 570 nm using a plate reader.

[1] = 48 hours, non-target gene of FOXC2

With `N=C(N)NCCCCNc1nc(Nc2ccc(Oc3ccccc3)cc2)nc(N2CCN(c3nc(N)nc(Nc4ccc(N5CCOCC5)cc4)n3)CC2)n1` [MC-1-F2] the FOXC2 protein level (FOXC2; 24 hours, absence of MG132) was “decrease in FOXC2 protein level”, the “FOXC2 protein level in presence of MG132” value (FOXC2; 24 hours, with 26S proteasome inhibitor MG132) was “prevented by incubating the cells with a 26S proteasome inhibitor, MG132” and the “nuclear localization of FOXC2” value (FOXC2; 48 hours, cytosolic and nuclear fractions) was “decrease in nuclear localization of FOXC2”. For the same compound, the PDGFR-β expression levels (MDA-MB-231 cells; 24 or 48 hours) was “decrease in PDGFR-β expression levels”, the E-cadherin expression (MDA-MB-231 cells; 48 hours) was “increase E-cadherin expression” and the “KLF4 expression (CSC marker)” value (MDA-MB-231 cells; 48 hours) was “decrease”. The MMP2 expression (MDA-MB-231 cells; 48 hours) was “downregulated the expression”, the N-cadherin expression (MDA-MB-231 cells; 48 hours) was “downregulation of N-cadherin” and the “Nanog expression (CSC marker)” value (MDA-MB-231 cells; 48 hours) was “no statistical difference”. The Slug expression (MDA-MB-231 cells; 48 hours) was “decrease in other mesenchymal markers”, the Snail protein level (MDA-MB-231 cells; 48 hours) was “did not affect the protein level” and the Vimentin expression (MDA-MB-231 cells; 48 hours) was “decrease in other mesenchymal markers”. The ZEB1 expression (MDA-MB-231 cells; 48 hours) was “downregulate ZEB1”, the “c-Myc expression (CSC marker)” value (MDA-MB-231 cells; 48 hours) was “decrease” and the “cytosolic fraction of β-catenin” value (MDA-MB-231 cells; 48 hours) was “increase in the cytosolic fractions”. For the same compound, the “induction of apoptosis (Western blot of Bad, phospho-Bad, Bak, Bax)” value (MDA-MB-231 cells; 48 hours) was “induction of an apoptosis”, the “nuclear fraction of β-catenin” value (MDA-MB-231 cells; 48 hours) was “decrease in the nuclear fraction” and the GSK3β expression levels (MDA-MB-231 cells; [1]) was “no effect on the expression levels”. The p38 expression levels (MDA-MB-231 cells; [1]) was “no effect on the expression levels” and the EC50 (DU145 cells) was 48.1 µM.

Source: patent US10814010B2, “FOXC2 inhibitor and methods of use thereof” (The Board of Regents of The University of Texas System, priority 2018, dated 2020)
